Consider 13 molecules from ChEMBL document CHEMBL2146446, “3-Hydroxy-1-alkyl-2-methylpyridine-4(1H)-thiones: Inhibition of the Pseudomonas aeruginosa Virulence Factor LasB” (ACS Med Chem Lett, 2012).

One data set addresses Elastase (Pseudomonas aeruginosa (strain ATCC 15692 / PAO1 / 1C / PRS 101 / LMG12228), UniProt P14756). Briefly: (§1) Antagonist activity at Pseudomonas aeruginosa LasB using Abz-Ala-Gly-Leu-Ala-p-Nitro-Benzyl-Amide as substrate incubated for 30 mins prior to substrate addition by FRET assay. The data set is classed as functional.
A short description of data set [1]: Metabolic stability in tryptic soy broth assessed as S-oxidation at 50 uM after 48 hrs. Type of data set: physicochemical.
A short description of data set [2]: Metabolic stability in tryptic soy broth assessed as decomposition at 50 uM after 48 hrs. The data set is classed as physicochemical.
Data set [3] has as its target Elastase (Pseudomonas aeruginosa (strain ATCC 15692 / PAO1 / 1C / PRS 101 / LMG12228)) (UniProt P14756). The data set is described as §1. Type of data set: functional.
Data set [4] shares this target. Briefly: Antagonist activity at Pseudomonas aeruginosa PA14 LasB assessed as inhibition of swarming at 25 uM after 16 hrs swarming motility assay relative to control. Type of data set: functional.
The next data set deals with Pseudomonas aeruginosa. Briefly: Toxicity against Pseudomonas aeruginosa PA14 assessed as viability at 25 uM by spectrophotometry. Type of data set: organism-based. The note with it: read-out: Activity.

Active and inactive are the calls of the source. No cut-off for these calls is given here.

Elastase (Pseudomonas aeruginosa (strain ATCC 15692 / PAO1 / 1C / PRS 101 / LMG12228)), sequence (P14756 198-498 limits assumed): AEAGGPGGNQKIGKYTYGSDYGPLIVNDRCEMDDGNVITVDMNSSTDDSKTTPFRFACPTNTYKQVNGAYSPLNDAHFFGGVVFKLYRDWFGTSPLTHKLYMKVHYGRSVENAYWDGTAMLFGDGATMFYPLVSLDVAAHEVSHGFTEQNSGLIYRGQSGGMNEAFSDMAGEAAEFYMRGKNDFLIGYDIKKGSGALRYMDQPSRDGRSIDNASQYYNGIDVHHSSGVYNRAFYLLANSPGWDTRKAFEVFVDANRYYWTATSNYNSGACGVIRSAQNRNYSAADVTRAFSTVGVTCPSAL
Elastase, sequence (P14756 whole entry): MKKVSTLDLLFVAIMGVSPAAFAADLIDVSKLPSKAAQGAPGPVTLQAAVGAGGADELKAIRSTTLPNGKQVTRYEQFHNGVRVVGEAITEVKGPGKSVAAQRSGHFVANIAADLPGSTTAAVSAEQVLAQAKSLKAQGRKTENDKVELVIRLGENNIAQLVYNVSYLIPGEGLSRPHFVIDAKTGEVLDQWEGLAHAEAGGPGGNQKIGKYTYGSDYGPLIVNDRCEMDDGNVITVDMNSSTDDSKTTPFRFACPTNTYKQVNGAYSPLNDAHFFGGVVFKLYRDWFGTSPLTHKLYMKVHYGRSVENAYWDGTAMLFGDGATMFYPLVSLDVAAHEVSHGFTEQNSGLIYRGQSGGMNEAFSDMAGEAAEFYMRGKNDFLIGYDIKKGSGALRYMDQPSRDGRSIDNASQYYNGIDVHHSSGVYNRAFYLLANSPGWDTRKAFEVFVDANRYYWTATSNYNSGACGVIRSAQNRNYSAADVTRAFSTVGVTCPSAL

As to `COc1ccc(-c2ccc(Cn3ccc(=S)c(O)c3C)cc2)cc1`, on Elastase, the IC50 (in general, the midpoint of a concentration-inhibition curve) amounted to 8.58 µM. In other words, the single-digit micromolar range.
For the molecule `O=C(Cc1cccc(F)c1)NO`, the Stability result in data set [1] and in data set [2] was “Unstable” throughout. Further, the Activity result in data set [3] is “Dose-dependent effect”. The same molecule showed an IC50 on Elastase of 16.4 µM. Besides, the result in data set [4] was inactive.
`Cc1c(O)c(=S)ccn1Cc1ccc(-c2ccccc2)cc1`: the Stability entry in data set [1] and in data set [2] was “Stable” throughout. For the same molecule, in the data set on Pseudomonas aeruginosa, the viability at 25 µM came out at 95%. Also, inhibition at Elastase was half-maximal at 2.73 µM (IC50). For the same molecule, the result in data set [4] was Active.
`Cn1cccc(O)c1=S`: the Activity entry in data set [3] was “Dose-dependent effect”. Further, on Elastase, it took 220 µM to reach half-maximal inhibition (IC50).
Regarding `Cc1c(O)c(=S)ccn1Cc1ccc(-c2ccc(F)cc2)cc1`, it took 4.65 µM to reach half-maximal inhibition on Elastase (IC50).
`O=C(Cc1ccccc1)NO` [PHENYLACETOHYDROXAMIC ACID]: the Stability entry in data set [1] and in data set [2] was “Unstable” in each case. The Activity entry in data set [3] is “Dose-dependent effect”. Also, the IC50 against Elastase was 13.6 µM. Moreover, in data set [4], the result was inactive.
Turning to `Cc1ccc(-c2ccc(Cn3ccc(=S)c(O)c3C)cc2)cc1`, the IC50 on Elastase turned out to be 6.72 µM.
Regarding `CCn1ccc(=S)c(O)c1C`, the Activity entry in data set [3] was “Dose-dependent effect”. The molecule further showed an IC50 against Elastase of 88.5 µM.
Turning to `Cc1c(O)c(=S)ccn1Cc1ccc(-c2ccc(F)c(F)c2)cc1`, the Stability result in data set [1] and in data set [2] was “Stable” throughout. Besides, in the data set on Pseudomonas aeruginosa, the viability at 25 µM was 95%. Further, the IC50 on Elastase is 3.34 µM. In data set [4], the result was Active.
On to `Cc1c(O)c(=S)ccn1C`, for which the Activity entry in data set [3] was “Dose-dependent effect”.
Regarding `CCc1c(O)c(=S)ccn1CC`, the Activity entry in data set [3] is “Dose-dependent effect”.
The molecule `Cc1c(O)c(=S)ccn1Cc1ccc(-c2ccc3c(c2)OCO3)cc1` gave an IC50 on Elastase of 3.58 µM. This counts as single-digit micromolar.
`Cc1c(O)c(=S)ccn1Cc1ccc(-c2ccc(Cl)cc2)cc1`: at Elastase, the IC50 was found to be 5.27 µM.
